Data: patent US10106523B2, “Amide compound” (ASTELLAS PHARMA INC., priority 2014, dated 2018)
pKi: −log10 of the molar value.

Target: rat EP4 receptor (Rattus norvegicus, UniProt P43114)
Experiment: Evaluation test of rat EP4 receptor affinity ([3H]PGE2 binding, membrane fraction of HEK-293 cells)
Design: expressed in transfected cells; host or cells: HEK-293 (ATCC CRL-1573), transient
Conditions: 0.3 nmol/L [3H]PGE2, rat EP4 cell membrane fraction, room temperature 1 hour; read-out: Ki value with respect to the rat EP4 receptor
Protocol: Test Example 1: Evaluation Test of Rat EP4 Receptor Affinity
Construction of Rat EP4 Receptor Expressing Vector:
A rat EP4 receptor gene (GenBank accession No.: NM_032076.1) was transfected into an expression vector pcDNA3.1-V5-His-TOPO (Invitrogen Inc.).
Transient Expression of Rat EP4 Receptor:
The expression vector of a rat EP4 receptor was transfected into an HEK-293 cell (ATCC No.: CRL-1573). The transfection was carried out according to an appended instruction, using Lipofectoamine (registered trademark) 2000 reagent (Invitrogen Inc.). After the transfection, the cells were cultured in an α-MEM culture medium for 20 to 24 hours.
Preparation of Membrane Fraction:
The culture medium was removed by aspiration, 10 mL of cooled phosphate buffered saline (PBS) was added thereto per 15 cm dish, and the cells were scraped using a cell scraper (Sumitomo Bakelite). […]
[^3H]PGE2 and a cell membrane fraction were diluted with an assay buffer (50 mmol/L HEPES-NaOH, 10 mmol/L MgCl2, pH 7.5), and the test compound and unlabeled PGE2 (Cayman) were diluted with DMSO and the assay buffer. […] The radioactivity was measured using a TopCount (Perkin Elmer). […] The specific binding amount was determined by subtracting the non-specific binding amount from the total binding amount. The Ki value was calculated according to a standard method.

rat EP4 receptor, sequence (P43114 whole entry): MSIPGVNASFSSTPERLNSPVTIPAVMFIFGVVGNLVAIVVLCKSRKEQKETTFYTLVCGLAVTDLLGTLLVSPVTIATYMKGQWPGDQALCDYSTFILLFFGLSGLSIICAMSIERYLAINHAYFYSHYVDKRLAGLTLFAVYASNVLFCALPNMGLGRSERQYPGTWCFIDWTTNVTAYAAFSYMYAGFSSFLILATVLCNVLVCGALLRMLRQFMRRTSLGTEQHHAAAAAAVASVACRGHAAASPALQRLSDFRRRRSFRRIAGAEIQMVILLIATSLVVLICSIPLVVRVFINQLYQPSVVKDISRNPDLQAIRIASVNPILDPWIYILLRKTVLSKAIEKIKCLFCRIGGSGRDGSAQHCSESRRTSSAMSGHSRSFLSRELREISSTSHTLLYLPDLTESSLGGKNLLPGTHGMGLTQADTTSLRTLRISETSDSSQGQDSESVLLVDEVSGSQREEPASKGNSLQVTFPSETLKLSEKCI

pKi: 6.85
Structure (SMILES): Cc1cc(C(=O)N[C@@H](C)c2ccc(C(=O)O)cc2)n(Cc2ccc(Cl)cc2)n1 [Example 205 in Patent Document 1, reference compound]
